# According to patent publication US4698352A, “4-oxo-1,4-dihydronicotinic acid derivatives, salts thereof, and antibacterial agents containing the same” (Toyama Chemical Co., Ltd., priority 1982, dated 1987):
# Like-named read-outs stand apart in the source and are kept apart here.
# Legend:
# Test in all cases: Antibacterial activity (MIC), agar dilution
# Format in all cases: cell-based
# E. coli GN5482** = settings: Escherichia coli, 20 h; E. coli GN5482, cephalospolinase-producing; 10^6 cells per ml; read-out: MIC
# Text: (§1) The amount of bacteria inoculated was 10^4 cells per plate (10^6 cells per ml).
# (§2) ** Cephalospolinase-producing bacteria
# Ps. aeruginosa GN918** = settings: Pseudomonas aeruginosa, Ps. aeruginosa GN918, cephalospolinase-producing, 10^6 cells per ml
# Text: as §1, §2
# Pro. vulgaris GN76** = settings: Proteus vulgaris
# Text: as §1, §2
# Pro. mirabilis T-111 = settings: Proteus mirabilis, 37° C.
# Text: as §1
# E. coli NIHJ JC-2 = settings: Escherichia coli, NIHJJC2, 20 h
# Text: as §1
# Aci. antitratus A-6 = settings: 20 h, Aci. antitratus A-6; 10^6 cells per ml; 37° C., 20 hours; read-out: MIC
# Text: as §1
# Ps. aeruginosa S-68 = settings: Pseudomonas aeruginosa, S68; Ps. aeruginosa S-68; 10^6 cells per ml; 37° C., 20 hours; read-out: MIC
# Text: as §1
# Pro. morganii T-216 = settings: Morganella morganii, 37° C.
# Text: as §1
# St. aureus FDA209P = settings: Staphylococcus aureus, FDA209P, 20 h
# Text: as §1
# Kl. pneumoniae Y-41 = settings: Klebsiella pneumoniae, Y41, 10^6 cells per ml, 37° C., 20 hours, read-out: MIC
# Text: as §1
# Ent. cloacae IID977 = settings: Enterobacter cloacae, IID977, 20 h, Ent. cloacae IID977; 10^6 cells per ml; 37° C., 20 hours; read-out: MIC
# Text: as §1
# E. coli TK-111 = settings: Escherichia coli, TK111, 20 h, E. coli TK-111; 10^6 cells per ml; 37° C., 20 hours; read-out: MIC
# Text: as §1
# Ps. aeruginosa IFO3445 = settings: Pseudomonas aeruginosa; Ps. aeruginosa IFO3445; 10^6 cells per ml; 37° C., 20 hours; read-out: MIC
# Text: as §1
# Pro. vulgaris GN3027 = settings: Proteus vulgaris, GN3027, 20 h, Pro. vulgaris GN3027; 10^6 cells per ml; 37° C., 20 hours; read-out: MIC
# Text: as §1
# Kl. pneumoniae Y-50 = settings: Klebsiella pneumoniae, Y50, 20 h, 10^6 cells per ml, 37° C., read-out: MIC
# Text: as §1
# E. coli TK-3* = settings: Escherichia coli, 20 h, E. coli TK-3, penicillinase-producing; 10^6 cells per ml; read-out: MIC
# Text: as §1
# (§3) * Penicillinase-producing bacteria
# Kl. pneumoniae Y-4* = settings: Klebsiella pneumoniae, 20 h, Kl. pneumoniae Y-4, penicillinase-producing; 10^6 cells per ml; read-out: MIC
# Text: as §1, §3
# Ps. aeruginosa GN3379* = settings: Pseudomonas aeruginosa, 20 h; Ps. aeruginosa GN3379, penicillinase-producing; 10^6 cells per ml; read-out: MIC
# Text: as §1, §3
# St. aureus F-137* = settings: Staphylococcus aureus, 20 h
# Text: as §1, §3
# [1] = E. coli NIHJ JC-2, 10^6 cells per ml, 37° C., 20 hours, read-out: MIC
# [2] = T216, 10^6 cells per ml, 20 hours, read-out: MIC
# [3] = St. aureus FDA209P, 10^6 cells per ml, 37° C., 20 hours, read-out: MIC
# [4] = St. aureus F-137, penicillinase-producing, 10^6 cells per ml, read-out: MIC
# [5] = 20 h, Pro. vulgaris GN76, cephalospolinase-producing, 10^6 cells per ml, read-out: MIC
# [6] = T111, 10^6 cells per ml, 20 hours, read-out: MIC
structure (smiles),measurement,setting,value
CN1CCOc2cc(-c3cc(=O)c(C(=O)O)cn3-c3ccc(O)cc3)ccc21,MIC,E. coli GN5482**,≤ 0.05 µg/mL
same,MIC,"Ps. aeruginosa GN918**; 20 h, read-out: MIC",6.25 µg/mL
same,MIC,"Pro. vulgaris GN76**; GN76, 20 h",3.13 µg/mL
same,MIC,"Pro. mirabilis T-111; T111, 20 h, 10^6 cells per ml",3.13 µg/mL
same,MIC,E. coli NIHJ JC-2; [1],0.39 µg/mL
same,MIC,Aci. antitratus A-6,0.78 µg/mL
same,MIC,Ps. aeruginosa S-68,6.25 µg/mL
same,MIC,Pro. morganii T-216; [2],1.56 µg/mL
same,MIC,St. aureus FDA209P; [3],0.39 µg/mL
same,MIC,Kl. pneumoniae Y-41,3.13 µg/mL
same,MIC,Ent. cloacae IID977,1.56 µg/mL
same,MIC,E. coli TK-111,0.2 µg/mL
same,MIC,Ps. aeruginosa IFO3445,12.5 µg/mL
same,MIC,Pro. vulgaris GN3027,0.39 µg/mL
same,MIC,Kl. pneumoniae Y-50,0.78 µg/mL
same,MIC,E. coli TK-3*,0.78 µg/mL
same,MIC,Kl. pneumoniae Y-4*,3.13 µg/mL
same,MIC,Ps. aeruginosa GN3379*,12.5 µg/mL
same,MIC,St. aureus F-137*; [4],0.39 µg/mL
CN1CCOc2cc(-c3cc(=O)c(C(=O)O)cn3-c3ccc(O)cc3F)ccc21,MIC,E. coli GN5482**,≤ 0.05 µg/mL
same,MIC,"Ps. aeruginosa GN918**; GN918, 20 h",3.13 µg/mL
same,MIC,"Pro. vulgaris GN76**; GN76, 20 h",3.13 µg/mL
same,MIC,"Pro. mirabilis T-111; T111, 20 h, 10^6 cells per ml",3.13 µg/mL
same,MIC,E. coli NIHJ JC-2; [1],0.39 µg/mL
same,MIC,Aci. antitratus A-6,0.39 µg/mL
same,MIC,Ps. aeruginosa S-68,6.25 µg/mL
same,MIC,Pro. morganii T-216; [2],1.56 µg/mL
same,MIC,St. aureus FDA209P; [3],0.39 µg/mL
same,MIC,Kl. pneumoniae Y-41,3.13 µg/mL
same,MIC,Ent. cloacae IID977,0.78 µg/mL
same,MIC,E. coli TK-111,0.1 µg/mL
same,MIC,Ps. aeruginosa IFO3445,6.25 µg/mL
same,MIC,Pro. vulgaris GN3027,0.39 µg/mL
same,MIC,Kl. pneumoniae Y-50,0.39 µg/mL
same,MIC,E. coli TK-3*,0.78 µg/mL
same,MIC,Kl. pneumoniae Y-4*,3.13 µg/mL
same,MIC,Ps. aeruginosa GN3379*,12.5 µg/mL
same,MIC,St. aureus F-137*; [4],0.2 µg/mL
Cc1cc(O)ccc1-n1cc(C(=O)O)c(=O)cc1-c1ccc2c(c1)NCCN2C,MIC,E. coli GN5482**,0.1 µg/mL
same,MIC,"Ps. aeruginosa GN918**; GN918, 20 h",3.13 µg/mL
same,MIC,Pro. vulgaris GN76**; [5],1.56 µg/mL
same,MIC,"Pro. mirabilis T-111; T111, 20 h, 10^6 cells per ml",3.13 µg/mL
same,MIC,E. coli NIHJ JC-2; [1],0.39 µg/mL
same,MIC,Aci. antitratus A-6,1.56 µg/mL
same,MIC,Ps. aeruginosa S-68,12.5 µg/mL
same,MIC,"Pro. morganii T-216; T216, 20 h, 10^6 cells per ml",3.13 µg/mL
same,MIC,St. aureus FDA209P; [3],0.78 µg/mL
same,MIC,Kl. pneumoniae Y-41,3.13 µg/mL
same,MIC,Ent. cloacae IID977,1.56 µg/mL
same,MIC,E. coli TK-111,0.2 µg/mL
same,MIC,Ps. aeruginosa IFO3445,25 µg/mL
same,MIC,Pro. vulgaris GN3027,0.78 µg/mL
same,MIC,Kl. pneumoniae Y-50,0.39 µg/mL
same,MIC,E. coli TK-3*,0.78 µg/mL
same,MIC,Kl. pneumoniae Y-4*,6.25 µg/mL
same,MIC,Ps. aeruginosa GN3379*,25 µg/mL
same,MIC,St. aureus F-137*; [4],0.78 µg/mL
Cc1cc(O)ccc1-n1cc(C(=O)O)c(=O)cc1C1CC=CCC1 (stereo not drawn),MIC,E. coli GN5482**,0.1 µg/mL
same,MIC,"Ps. aeruginosa GN918**; 20 h, read-out: MIC",0.78 µg/mL
same,MIC,Pro. vulgaris GN76**; [5],0.39 µg/mL
same,MIC,"Pro. mirabilis T-111; T111, 20 h, 10^6 cells per ml",1.56 µg/mL
same,MIC,E. coli NIHJ JC-2; [1],0.39 µg/mL
same,MIC,Aci. antitratus A-6,0.2 µg/mL
same,MIC,Ps. aeruginosa S-68,6.25 µg/mL
same,MIC,"Pro. morganii T-216; T216, 20 h, 10^6 cells per ml",1.56 µg/mL
same,MIC,St. aureus FDA209P; [3],0.2 µg/mL
same,MIC,Kl. pneumoniae Y-41,1.56 µg/mL
same,MIC,Ent. cloacae IID977,0.78 µg/mL
same,MIC,E. coli TK-111,0.1 µg/mL
same,MIC,Ps. aeruginosa IFO3445,6.25 µg/mL
same,MIC,Pro. vulgaris GN3027,≤ 0.05 µg/mL
same,MIC,Kl. pneumoniae Y-50,0.39 µg/mL
same,MIC,E. coli TK-3*,0.78 µg/mL
same,MIC,Kl. pneumoniae Y-4*,1.56 µg/mL
same,MIC,Ps. aeruginosa GN3379*,6.25 µg/mL
same,MIC,St. aureus F-137*; [4],0.1 µg/mL
O=C(O)c1cn(-c2ccc(O)cc2F)c(C2CC=CCC2)cc1=O (stereo not drawn),MIC,E. coli GN5482**,0.39 µg/mL
same,MIC,"Ps. aeruginosa GN918**; 20 h, read-out: MIC",1.56 µg/mL
same,MIC,Pro. vulgaris GN76**; [5],0.78 µg/mL
same,MIC,Pro. mirabilis T-111; [6],12.5 µg/mL
same,MIC,E. coli NIHJ JC-2; [1],1.56 µg/mL
same,MIC,Aci. antitratus A-6,3.13 µg/mL
same,MIC,Ps. aeruginosa S-68,12.5 µg/mL
same,MIC,Pro. morganii T-216; [2],3.13 µg/mL
same,MIC,St. aureus FDA209P; [3],0.39 µg/mL
same,MIC,Kl. pneumoniae Y-41,6.25 µg/mL
same,MIC,Ent. cloacae IID977,3.13 µg/mL
same,MIC,E. coli TK-111,0.39 µg/mL
same,MIC,Ps. aeruginosa IFO3445,12.5 µg/mL
same,MIC,Pro. vulgaris GN3027,0.1 µg/mL
same,MIC,Kl. pneumoniae Y-50,0.78 µg/mL
same,MIC,E. coli TK-3*,3.13 µg/mL
same,MIC,Kl. pneumoniae Y-4*,6.25 µg/mL
same,MIC,Ps. aeruginosa GN3379*,12.5 µg/mL
same,MIC,St. aureus F-137*; [4],0.39 µg/mL
Cc1cc(O)ccc1-n1cc(C(=O)O)c(=O)cc1C1CC2C=CC1C2 (stereo not drawn),MIC,E. coli GN5482**,1.56 µg/mL
same,MIC,"Ps. aeruginosa GN918**; 20 h, read-out: MIC",50 µg/mL
same,MIC,Pro. vulgaris GN76**; [5],6.25 µg/mL
same,MIC,Pro. mirabilis T-111; [6],25 µg/mL
same,MIC,E. coli NIHJ JC-2,3.13 µg/mL
same,MIC,Aci. antitratus A-6,6.25 µg/mL
same,MIC,Ps. aeruginosa S-68,> 100 µg/mL
same,MIC,Pro. morganii T-216; [2],12.5 µg/mL
same,MIC,St. aureus FDA209P,3.13 µg/mL
same,MIC,Kl. pneumoniae Y-41,25 µg/mL
same,MIC,Ent. cloacae IID977,12.5 µg/mL
same,MIC,E. coli TK-111,1.56 µg/mL
same,MIC,Ps. aeruginosa IFO3445,> 100 µg/mL
same,MIC,Pro. vulgaris GN3027,0.78 µg/mL
same,MIC,Kl. pneumoniae Y-50,3.13 µg/mL
same,MIC,E. coli TK-3*,12.5 µg/mL
same,MIC,Kl. pneumoniae Y-4*,25 µg/mL
same,MIC,Ps. aeruginosa GN3379*,> 100 µg/mL
same,MIC,St. aureus F-137*,3.13 µg/mL
